Measurements from patent US20220315933A1, “SYSTEMS AND METHODS FOR SINGLE-STRAND BREAK SIGNALING AND REPAIR IN A CELL-FREE SYSTEM AND METHODS OF IDENTIFYING MODULATORS OF SINGLE-STRAND BREAK SIGNALING AND REPAIR” (University of North Carolina Charlotte, priority 2017, published 2022).

Tests used:
ATR-Chk1 DDR pathway [1] = assay: Defined SSB plasmid-induced checkpoint signaling in Xenopus HSS system (immunoblotting); type: biochemical, Xenopus laevis; details: for SSB-induced Chk1 phosphorylation (Chk1 P-S344): HSS with SSB plasmid 75 ng/μL, 30 min incubation, inhibitor added
Experimental: CTL or SSB plasmid was added to HSS at different concentrations as indicated, and incubated for 30 minutes. Extracts were examined via immunoblotting analysis for Chk1 phosphorylation (i.e., Chk1 P-Ser344) and total Chk1 (FIG. 8A). CTL or SSB plasmid was added to HSS at a final concentration of 75 ng/μL. After different time of incubation at room temperature, the extracts were examined via immunoblotting analysis (FIG. 8B). ATR inhibitor VE-822, ATM inhibitor KU55933, DNA-PK inhibitor NU7441, or recombinant geminin was added to HSS supplemented with CTL or SSB plasmid at a final concentration of […] for 30 minutes. Geminin or roscovitine was added to HSS supplemented with sperm chromatin and hydrogen peroxide. After a 45-min incubation, extracts were examined via immunoblotting analysis as indicated (FIG. 8F). CTL, SSB, or DSB plasmid was added to HSS at different concentrations as indicated. Samples were examined via immunoblotting analysis (FIG. 8G).
CTL or SSB plasmid was added to HSS with the presence or absence of VE-822. After 30-min incubation, Chk1 phosphorylation, RPA32 phosphorylation, and Rad17 phosphorylation were examined via immunoblotting analysis as indicated in the image in FIG. 9A. CTL or SSB plasmid was added to NPE with the presence or absence of VE-822 (ATR inhibitor) or Tautomycin (phosphatase inhibitor). Samples were examined via immunoblotting analysis as illustrated in FIG. 9B. For FIG. 9C, CTL or SSB plasmid was added to mock- or Pol alpha-depleted HSS. After 30-min incubation, samples were analyzed via immunoblotting analysis, as illustrated.
(§1) The care and use of Xenopus laevis was approved by the Institutional Animal Care and Use Committee (IACUC) of the University of North Carolina at Charlotte. The preparation of Xenopus LSS, HSS, and NPE were described previously (35,36,39, which are hereby incorporated by reference herein). […] DNA synthesis analysis was performed as previously described (11,35, which are hereby incorporated by reference herein). ImageQuat software was used to quantify the DNA synthesis from HSS/NPE system. […] DNA-bound fractions from the HSS system were isolated after spinning extracts through a sucrose cushion (0.9 M sucrose, 2.5 mM MgCl2, 50 mM KCl, 10 mM HEPES, pH7.7) at 10,000 rpm for 2 minutes at 4° C. with a swinging bucket.
To determine whether a defined SSB structure triggers a DDR pathway, different concentrations of SSB or CTL plasmid structure were added to HSS, followed by immunoblotting analysis after a 30-minute incubation.

SSB repair = SSB repair of SSB plasmid in the HSS system (agarose gel); type: biochemical, Xenopus laevis; details: SSB plasmid in HSS with or without VE-822; circular/(circular+nicked)
Experimental: FIGS. 6A-6D illustrate verification and analysis of the defined DNA structures. FIG. 6A is an image verifying the defined SSB structure on agarose gel (Ethidium bromide staining). CTL plasmid was added to HSS for different time. Then DNA samples were isolated and treated with or without Sbfl, and analyzed on agarose gel (Ethidium bromide staining) as shown in FIG. 6B. For FIG. 6C, the SSB plasmid was added to HSS with or without VE-822 for different time as indicated. SSB repair products were isolated and examined on agarose gel (Ethidium bromide staining). FIG. 6D is a graph quantifying SSB repair capacity (circular/(circular+nicked)×100) with or without VE-822 treatment in the HSS system from FIG. 6C.
Nuclease-free water was added to each reaction of HSS that was incubated with SSB or DSB plasmid to a total of 300 μL. Equal volume of phenol-chloroform was added to the mixture and resuspended up and down 5 times and spin for 5 minutes at 13,000 rpm at room temperature. The top aqueous layer was transferred to a new tube and repeat phenol-chloroform extraction. […] Then the purified DNA repair products were analyzed on agarose gel and stained with ethidium bromide. […]

U2OS cells = assay: Hydrogen peroxide-induced ATR-Chk1 DDR in human U2OS cells (immunoblotting); type: cell-based; details: asynchronized U2OS cells; VE-822 5 μM 1 hour, then hydrogen peroxide 1.25 mM 4 hours
Experimental: FIGS. 11A-11B illustrate that hydrogen peroxide induces Chk1 phosphorylation and RPA32 phosphorylation in an ATR-dependent manner in human U2OS cells. FIG. 11A is a digital image of immunoblotting analysis of asynchronized U2OS cells treated with H2O2 and/or VE-822. Cell lysates were analyzed via immunoblotting analysis as indicated. G1 synchronized U2OS cells were treated with H2O2 and/or VE-822. Cell lysates were analyzed via immunoblotting analysis as indicated and illustrated in FIG. 11B.
Human U2OS cells were purchased from the American Type Culture Collection (ATCC) and cultured in Dulbecco's Modified Eagle Medium (DMEM, Life Technologies) supplemented with 10% fetal bovine serum (FBS, Invitrogen), penicillin (100 U/mL) and streptomycin (100 μg/mL, Life Technologies) in incubator at 37° C. and 5% CO2. […] Cells were treated with VE-822 (5 μM) in culture medium for 1 hour followed by hydrogen peroxide treatment (1.25 mM) for 4 hours. Then cells were collected and split for immunoblotting analysis and FACS analysis. For immunoblotting analysis, equal total proteins of cell lysates (10 μg per lane) were loaded and Tubulin was used for loading control. For FACS analysis, cells were further fixed and stained with DAPI followed by cell cycle profiling using FACS machine (BD LSRFortessa) following manufacturer's standard protocol.

ATR-Chk1 DDR pathway [2] = assay: Plasmid-induced Chk1 phosphorylation in NPE (immunoblotting); type: biochemical, Xenopus laevis
Experimental: After 30-min incubation, Chk1 phosphorylation, RPA32 phosphorylation, and Rad17 phosphorylation were examined via immunoblotting analysis as indicated in the image in FIG. 9A. […] Samples were examined via immunoblotting analysis as illustrated in FIG. 9B. For FIG. 9C, CTL or SSB plasmid was added to mock- or Pol alpha-depleted HSS. After 30-min incubation, samples were analyzed via immunoblotting analysis, as illustrated.
as §1

ATR-Chk1 DDR pathway [3] = assay: Hydrogen peroxide-induced Chk1 phosphorylation in HSS supplemented with sperm chromatin (immunoblotting); type: biochemical, Xenopus laevis; details: HSS with sperm chromatin and hydrogen peroxide, 45-min incubation
Experimental: FIGS. 8A-8G illustrate that the ATR-Chk1 DNA damage response pathway is induced by the defined SSB structure in the HSS system. CTL or SSB plasmid was added to HSS at different concentrations as indicated, and incubated for 30 minutes. Extracts were examined via immunoblotting analysis for Chk1 phosphorylation (i.e., Chk1 P-Ser344) and total Chk1 (FIG. 8A). CTL or SSB plasmid was added to HSS at a final concentration of 75 ng/μL. After different time of incubation at room temperature, the extracts were examined via immunoblotting analysis (FIG. 8B). ATR inhibitor VE-822, ATM inhibitor KU55933, DNA-PK inhibitor NU7441, or recombinant geminin was added to HSS supplemented with CTL or SSB plasmid at a final concentration of […] for 30 minutes. Geminin or roscovitine was added to HSS supplemented with sperm chromatin and hydrogen peroxide. After a 45-min incubation, extracts were examined via immunoblotting analysis as indicated (FIG. 8F). CTL, SSB, or DSB plasmid was added to HSS at different concentrations as indicated. Samples were examined via immunoblotting analysis (FIG. 8G).
The care and use of Xenopus laevis was approved by the Institutional Animal Care and Use Committee (IACUC) of the University of North Carolina at Charlotte. […] ImageQuat software was used to quantify the DNA synthesis from HSS/NPE system. […]

Molecule: Nc1ccc2c3c(cccc13)C(=O)NC2=O [4-Amino-1,8-naphthalimide]
- SSB-induced Chk1 phosphorylation (Chk1 P-S344) (ATR-Chk1 DDR pathway [1]): enhanced

Molecule: O=c1cc(-c2cccc3c2Sc2ccccc2S3)oc(N2CCOCC2)c1 [KU55933]
- SSB-induced Chk1 phosphorylation (Chk1 P-S344) (ATR-Chk1 DDR pathway [1]): almost had no effect

Molecule: O=c1cc(N2CCOCC2)oc2c(-c3cccc4c3sc3ccccc34)cccc12 [NU7441]
- SSB-induced Chk1 phosphorylation (Chk1 P-S344) (ATR-Chk1 DDR pathway [1]): almost had no effect

Molecule: CNCc1ccc(-c2cc(-c3nc(-c4ccc(S(=O)(=O)C(C)C)cc4)cnc3N)on2)cc1 [VE-822]
- SSB-induced Chk1 phosphorylation (Chk1 P-S344) (ATR-Chk1 DDR pathway [1]): compromised
- SSB-induced RPA32 phosphorylation (ATR-Chk1 DDR pathway [1]; HSS with SSB plasmid, 30 min): sensitive
- SSB-induced Rad17 phosphorylation (ATR-Chk1 DDR pathway [1]; HSS with SSB plasmid, 30 min): sensitive
- SSB repair in the HSS system (SSB repair): compromised
- hydrogen peroxide-induced Chk1 phosphorylation (U2OS cells): prevented
- hydrogen peroxide-induced RPA32 phosphorylation (U2OS cells): prevented
- Chk1 phosphorylation events in NPE (SSB plasmid- and CTL plasmid-induced) (ATR-Chk1 DDR pathway [2]; NPE with the presence of tautomycin): inhibited

Molecule: C[C@@]1(CO)[C@H](O)CC[C@@]2(C)[C@H]1CC[C@H]1C[C@@H]3C[C@@]12CC[C@]3(O)CO [aphidicolin]
- SSB-induced Chk1 phosphorylation (Chk1 P-S344) (ATR-Chk1 DDR pathway [1]): not affected

Molecule: CC[C@H](CO)Nc1nc(NCc2ccccc2)c2ncn(C(C)C)c2n1 [rescovitine]
- hydrogen peroxide-induced Chk1 phosphorylation in the HSS (ATR-Chk1 DDR pathway [3]): had no effect

Molecule: CO[C@H]([C@H](O)CC(=O)[C@@H](C)[C@@H](O)CC[C@@H](C)[C@@H]1O[C@]2(CC[C@@H](C)[C@H](CC[C@H](C)C(C)=O)O2)CC[C@@H]1C)[C@H](OC(=O)C[C@@H](O)C1=C(C)C(=O)OC1=O)C(C)C [tautomycin]
- SSB plasmid-triggered Chk1 phosphorylation in NPE (ATR-Chk1 DDR pathway [2]; with the presence of tautomycin, no detectable Chk1 phosphorylation without it): very robust

B1: geminin: MCM helicase inhibitor recombinant geminin protein (protein, UniProt O75496 1-209, looked up)
Geminin: MNPSMKQKQEEIKENIKNSSVPRRTLKMIQPSASGSLVGRENELSAGLSKRKHRNDHLTSTTSSPGVIVPESSENKNLGGVTQESFDLMIKENPSSQYWKEVAEKRRKALYEALKENEKLHKEIEQKDNEIARLKKENKELAEVAEHVQYMAELIERLNGEPLDNFESLDNQEFDSEEETVEDSLVEDSEIGTCAEGTVSSSTDAKPCI
- SSB-induced Chk1 phosphorylation (Chk1 P-S344) (ATR-Chk1 DDR pathway [1]): not impaired
- hydrogen peroxide-induced Chk1 phosphorylation in the HSS (ATR-Chk1 DDR pathway [3]): had no effect
